The values that follow come from ChEMBL document CHEMBL4706689, “Synthesis and antifungal activity of polycyclic pyridone derivatives with anti-hyphal and biofilm formation activity against Candida albicans” (2021).

Structures are written as SMILES. Calls of active or inactive are those of the source. The rule behind the calls is not given here.

For experiment [1], the system named is Candida albicans. The experiment is described as follows: Inhibition of hyphal formation in Candida albicans SC5314 cultured in spider medium assessed as reduction in hyphal length. The class given is functional, organism-based. Conditions: dose 3.12-25 µg/ml.
Experiment [2] relates to Candida albicans. The experiment is described as follows: Inhibition of hyphal formation in Candida albicans SC5314 cultured in spider medium assessed as reduction in hyphal length at 25 ug/ml relative to control. The format is functional.
Experiment [3] relates to Candida albicans. In words: Inhibition of biofilm formation in Candida albicans SC5314 at 6.25 to 25 ug/ml by XTT assay. The format is functional, organism-based. The following applies: dose 6.25-25 µg/ml. On the technique in general: Tetrazolium assays rely on reduction of a dye to a coloured formazan, in cell work by metabolically active cells.
Experiment [4] relates to Candida albicans. In words: Inhibition of biofilm formation in Candida albicans SC5314 by XTT assay. The format is functional, organism-based.
The subject of experiment [5] is Candida albicans. The experiment is described as follows: Inhibition of biofilm formation in Candida albicans SC5314 at 25 ug/ml by XTT assay relative to control. The format is functional.

As a reminder, the inhibition is the relative decrease from the control value, in per cent. For `CC1(C)C=Cc2c(c(-c3cccs3)c(Cl)[nH]c2=O)O1`, in experiment [1], the inhibition entry is “Dose-dependent effect”. Moreover, the inhibition at 25 µg/mL in experiment [2] was more than 50%. For the same molecule, the inhibition entry in experiment [3] was “Active”.

Consider `Cc1ccc(-c2c(Cl)[nH]c(=O)c3c2O[C@H](C)[C@@H]2COc4ccccc4[C@H]32)cc1`, for which the inhibition result in experiment [1] is “Dose-dependent effect”. Also, in experiment [4], the inhibition result was “inactive”. Besides, the inhibition at 25 µg/mL in experiment [2] is more than 50%.

`CC1(C)C=Cc2c(c(-c3ccccc3)c(Cl)[nH]c2=O)O1`: the inhibition at 25 µg/mL in experiment [2] came to 30%.

In the case of `Cc1ccc(-c2c[nH]c(=O)c3c2OC(C)(C)C=C3)cc1`, the inhibition result in experiment [1] is “Dose-dependent effect”. In addition, the inhibition at 25 µg/mL in experiment [5] was 17.9%; in experiment [2], more than 50%.

In the case of `CC(C)=CC[C@]1(C)Oc2c(-c3ccc(C)cc3)c(Cl)[nH]c(=O)c2[C@H]2c3ccccc3OC[C@H]21`, the inhibition at 25 µg/mL in experiment [2] was 30%.

Regarding `Cc1ccc(-c2c(Cl)[nH]c(=O)c3c2OC(C)(C)C=C3)cc1`, in experiment [2], the inhibition at 25 µg/mL stood at 30%.

On to `CC(C)=CCC1(C)C=Cc2c(c(-c3ccc(C)cc3)c(Cl)[nH]c2=O)O1` (stereo not drawn), for which the inhibition at 25 µg/mL in experiment [2] is 30%.

On to `C[C@H]1CC[C@H]2[C@H](C1)c1c(c(-c3cccs3)c(Cl)[nH]c1=O)OC2(C)C`, for which the inhibition at 25 µg/mL in experiment [2] is 30%.

On to `C[C@H]1Oc2c(-c3cccs3)c(Cl)[nH]c(=O)c2[C@H]2c3ccccc3OC[C@H]21`, for which the inhibition at 25 µg/mL in experiment [2] turned out to be 30%.

`CC1(C)C=Cc2c(c(-c3ccccc3)c[nH]c2=O)O1`: the inhibition result in experiment [1] is “Dose-dependent effect”. Further, the inhibition at 25 µg/mL in experiment [5] was 18.7%; in experiment [2], more than 50%.
